# Assay results published in patent publication US20220396565A1 (Hoffmann-La Roche Inc., priority 2020, published 2022).
# Where a name gives a salt, the structure may show the parent alone.
# System: Acinetobacter baumannii ATCC17961
# Experiment: Antimicrobial susceptibility testing: 90% growth inhibitory concentration (IC90) determination, Iso-Sensitest broth
# Assay type: cell-based
# Details: Acinetobacter baumannii, ATCC17961, 90% growth inhibitory concentration, Acinetobacter baumannii ATCC17961, Iso-Sensitest broth; read-out: ATCC 17961 IC90
# How it was run: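 Twofold serial dilutions (e.g. 10 to 0.02 μM final) were tested in Iso-Sensitest broth against ~5×10^(5) CFU/ml at 35±2 °C. OD600 was read every 20 min over 16 h. IC90 was derived from growth inhibition during the logarithmic phase.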
row,SMILES,IC90 [nM]
1,"Cn1c(-c2ccc(OCF)c(F)c2Cl)cnc1C(=O)Nc1ccc(C(=O)N2CCN(C(=O)CC3(O)CCNCC3)CC2)c(Cl)c1 [Example 173, 5-[2-chloro-3-fluoro-4-(fluoromethoxy)phenyl]-N-[3-chloro-4-[4-[2-(4-hydroxy-4-piperidyl)acetyl]piperazine-1-carbonyl]phenyl]-1-methyl-imidazole-2-carboxamide formate]",50
2,"COc1ccc(-c2cnc(C(=O)Nc3ccc(C(=O)N4CCN(C(=O)CN5CC(O)C5)CC4)c(Cl)c3)n2C)c(F)c1F [Example 295, N-[3-chloro-4-[4-[2-(3-hydroxyazetidin-1-yl)acetyl]piperazine-1-carbonyl]phenyl]-5-(2,3-difluoro-4-methoxy-phenyl)-1-methyl-imidazole-2-carboxamide formate]",110
3,"CN(C)C(=O)c1ccc(-c2cnc(C(=O)Nc3ccc(C(=O)N4CCN(C(=O)C5CCNCC5)CC4)c(Cl)c3)n2C)c(F)c1F [Example 263, N-[3-chloro-4-[4-(piperidine-4-carbonyl)piperazine-1-carbonyl]phenyl]-5-[4-(dimethylcarbamoyl)-2,3-difluoro-phenyl]-1-methyl-imidazole-2-carboxamide formate]",6060
4,"Cn1c(-c2ccc(OCF)c(F)c2Cl)cnc1C(=O)Nc1ccc(C(=O)N2CCC(C(=O)N[C@@H]3CNC[C@H]3O)CC2)c(Cl)c1 [Example 53, 1-[2-chloro-4-[[5-[2-chloro-3-fluoro-4-(fluoromethoxy)phenyl]-1-methyl-imidazole-2-carbonyl]amino]benzoyl]-N-[(3R,4R)-4-hydroxypyrrolidin-3-yl]piperidine-4-carboxamide formate]",50
5,"COc1ccc(-c2cnc(C(=O)Nc3ccc(C(=O)N4CCN(C(=O)N[C@H]5CNC[C@@H]5O)CC4)c(Cl)c3)n2C)c(F)c1F [Example 283, 4-[2-chloro-4-[[5-(2,3-difluoro-4-methoxy-phenyl)-1-methyl-imidazole-2-carbonyl]ami-no]benzoyl]-N-[(3R,4R)-4-hydroxypyrrolidin-3-yl]piperazine-1-carboxamide formate]",40
6,"COc1ccc(-c2cnc(C(=O)Nc3ccc(C(=O)N4CCC(NC(=O)[C@@H]5C[C@@H](O)CN5)CC4)c(Cl)c3)n2C)c(F)c1F [Example 102, N-[3-chloro-4-[4-[[(2S,4R)-4-hydroxypyrrolidine-2-carbonyl]amino]piperidine-1-carbonyl]phenyl]-5-(2,3-difluoro-4-methoxy-phenyl)-1-methyl-imidazole-2-carboxamide]",90
7,"COc1ccc(-c2cnc(C(=O)Nc3ccc(C(=O)N4CCC(C(=O)NCC5CCN5)CC4)c(Cl)c3)n2C)c(F)c1F (stereo not shown) [Example 63, N-(azetidin-2-ylmethyl)-1-[2-chloro-4-[[5-(2,3-difluoro-4-methoxy-phenyl)-1-methyl-imidazole-2-carbonyl]amino]benzoyl] piperidine-4-carboxamide formate]",90
8,"Cn1c(-c2ccc(OCF)c(F)c2F)cnc1C(=O)Nc1ccc(C(=O)N2CCN(C(=O)[C@@H]3C[C@@H](O)CN3)CC2)c(Cl)c1 [Example 221, N-(3-chloro-4-(4-((2S,4R)-4-hydroxypyrrolidine-2-carbonyl)piperazine-1-carbonyl)phenyl)-5-(2,3-difluoro-4-(fluoromethoxy)phenyl)-1-methyl-1H-imidazole-2-carboxamide formate]",50
9,"Cn1c(-c2ccc(OC(F)F)c(F)c2F)cnc1C(=O)Nc1ccc(C(=O)N2CCC(C(=O)NC[C@H]3CCNC3)CC2)c(Cl)c1 [Example 48, 1-[2-chloro-4-[[5-[4-(difluoromethoxy)-2,3-difluoro-phenyl]-1-methyl-imidazole-2-carbonyl]amino]benzoyl]-N-[[(3S)-pyrrolidin-3-yl]methyl]piperidine-4-carboxamide trifluoroacetate]",40

# Same assay, conditions: Acinetobacter baumannii, ATCC17961, read-out: ATCC 17961 IC90
row,SMILES,IC90 [nM]
1,Cn1c(-c2ccc(OCC#N)c(F)c2F)cnc1C(=O)Nc1ccc(C(=O)N2CCN(C(=O)N[C@@H]3CNC[C@H]3O)CC2)c(Cl)c1 [Example 7],70
